# In patent US12396459B2, “Synergistically effective herbicide composition comprising pyridate and at least one defined 4-HPPD inhibitor” (BELCHIM CROP PROTECTION NV, priority 2018, dated 2025):
# Assays:
# Format in all cases: in vivo
# Matricaria chamomilla [1] = test: Examples 6-8 herbicidal effect: MATCH; conditions: 7 DAA
# Datura stramonium = test: Field trial post-emergence in maize: DATST; conditions: 7-14 DAA; # = 2; g a.c./ha: PYR 300, MES 100, PYR + MES 300 + 90
# Protocol: (§1) Herbicidal activity of herbicide compositions according to the first aspect of the present invention with regard to different types of unwanted vegetation was determined during trials performed on test fields (field trials). Individual compositions comprising pyridate and individual compositions comprising a defined 4-HPPD inhibitor are compared with a herbicide composition according to the invention comprising both pyridate and a defined 4-HPPD inhibitor. The expected activity of the combination of the active compounds pyridate and a defined 4-HPPD inhibitor is calculated according to above mentioned calculation method by Colby, in order to evaluate a synergistic effect between pyridate and a defined 4-HPPD inhibitor.
# (§2) Herbicidal activity was determined by applying herbicide compositions on emerged unwanted vegetation on fields where maize was cultivated. Pyridate and a defined 4-HPPD inhibitor were applied as a tank mixture by mixing these active compounds prior to use in a spray tank. The corresponding mixture was in the form of a spray liquor. […] At a specified number of days after application (DAA), the degree of damage to the unwanted vegetation is rated in % of plants of unwanted vegetation that were killed, which was assessed by visually controlling the plants.
# Matricaria chamomilla [2] = test: Field trial post-emergence in maize: MATCH
# Protocol: as §1
# (§3) Herbicidal activity was determined by applying herbicide compositions on emerged unwanted vegetation on fields where maize was cultivated. Pyridate and a defined 4-HPPD inhibitor were applied as a tank mixture by mixing these active compounds prior to use in a spray tank. The corresponding mixture was in the form of a spray liquor. Besides, spray liquors of individual compositions comprising pyridate and of individual compositions comprising a defined 4-HPPD inhibitor were used. Test plants of unwanted vegetation with a growth stage corresponding to BBCH 10-18 (according to the extended BBCH-scale) were sprayed with the active compound preparations such that particular desired amounts of active compounds are applied per unit area. Spray liquor was diluted with water to arrive at an application volume of 50 to 450 L/ha. At a specified number of days after application (DAA), the degree of damage to the unwanted vegetation is rated in % of plants of unwanted vegetation that were killed, which was assessed by visually controlling the plants.
# (§4) Example 1 concerns a herbicide composition comprising a combination of pyridate and mesotrione, which was applied post-emergence on unwanted vegetation on a field where maize was cultivated, according to the test conditions mentioned above.
# Galium aparine = test: Field trial post-emergence in maize: GALAP
# Protocol: as §1, §3, §4
# Thlaspi arvense = test: Field trial post-emergence in maize: THLAR; conditions: # = 1, g a.c./ha: PYR 300, MES 100, PYR + MES 300 + 90
# Protocol: as §1, §3
# Geranium dissectum = test: Examples 6-8 herbicidal effect: GERDI; conditions: 7 DAA
# Poa annua [3] = test: Field trial post-emergence in maize: POAAN; conditions: for herbicidal effect (h.e.): g a.c./ha: PYR 300, MES 100, PYR + MES 300 + 90
# Protocol: as §1, §3
# Poa annua [4] = test: Examples 6-8 herbicidal effect: POAAN; conditions: 7 DAA
# Echinochloa crus-galli [5] = test: Examples 6-8 herbicidal effect: ECHCG; conditions: 7 DAA
# Atriplex patula = test: Field trial post-emergence in maize: ATXPA
# Protocol: as §1, §3, §4
# Veronica persica = test: Examples 6-8 herbicidal effect: VERPE; conditions: 7 DAA
# Echinochloa crus-galli [6] = test: Field trial post-emergence in maize: ECHCG; conditions: for herbicidal effect (h.e.): g a.c./ha: PYR 300, MES 100, PYR + MES 300 + 90
# Protocol: as §1, §3
# Erodium ciconium = test: Field trial post-emergence in maize: EROCC
# Protocol: as §1, §3, §4
# Geranium sp. = test: Field trial post-emergence in maize: GERSS; conditions: # = 1, g a.c./ha: PYR 300, MES 100, PYR + MES 300 + 90
# Protocol: as §1, §3
# Stachys arvensis = test: Field trial post-emergence in maize: STAAR; conditions: 7-14 DAA; # = 1; g a.c./ha: PYR 300, MES 100, PYR + MES 300 + 90
# Protocol: as §1, §2
# Amaranthus retroflexus = test: Field trial post-emergence in maize: AMARE; conditions: 13-14 DAA; # = 1; g a.c./ha: PYR 450, MES 144, PYR + MES 450 + 144
# Protocol: as §1, §3
# Hibiscus ternatus = test: Field trial post-emergence in maize: HIBTR; conditions: 7-14 DAA; # = 2; g a.c./ha: PYR 300, MES 100, PYR + MES 300 + 90
# Protocol: as §1, §2
# Anagallis arvensis = test: Field trial post-emergence in maize: ANGAR; conditions: 7-14 DAA; # = 2; g a.c./ha: PYR 300, MES 100, PYR + MES 300 + 90
# Protocol: as §1, §2
# Mercurialis annua = test: Field trial post-emergence in maize: MERAN
# Protocol: as §1, §3, §4
# Brassica napus (winter) = test: Field trial post-emergence in maize: BRSNW; conditions: # = 1, g a.c./ha: PYR 300, MES 100, PYR + MES 300 + 90
# Protocol: as §1, §3
# [7] = g a.c./ha: MES 50, PYR + SMO 300 + 800
# [8] = g a.c./ha: MES 80, PYR + MES 300 + 50
structure (smiles),measurement,setting,value
"CS(=O)(=O)c1ccc(C(=O)C2C(=O)CCCC2=O)c([N+](=O)[O-])c1 [MES, 2-(4-methylsulfonyl-2-nitrobenzoyl) cyclohexane-1,3-dione]",herbicidal effect (h.e.),Matricaria chamomilla [1]; [7],25%
same,herbicidal effect (h.e.),Matricaria chamomilla [1]; [8],53%
same,herbicidal effect (h.e.),Datura stramonium,98%
same,MES h.e.,Matricaria chamomilla [2]; MATCH 14-20 DAA 45 g a.c./ha,53%
same,MES h.e.,Matricaria chamomilla [2]; MATCH 14-20 DAA 90 g a.c./ha,72%
same,MES h.e.,Matricaria chamomilla [2]; MATCH 14-20 DAA 135 g a.c./ha,81%
same,MES h.e.,Matricaria chamomilla [2]; MATCH 24-31 DAA 45 g a.c./ha,43%
same,MES h.e.,Matricaria chamomilla [2]; MATCH 24-31 DAA 90 g a.c./ha,77%
same,MES h.e.,Matricaria chamomilla [2]; MATCH 24-31 DAA 135 g a.c./ha,93%
same,MES h.e.,Galium aparine; GALAP 14-20 DAA 45 g a.c./ha,30%
same,MES h.e.,Galium aparine; GALAP 14-20 DAA 90 g a.c./ha,80%
same,MES h.e.,Galium aparine; GALAP 14-20 DAA 135 g a.c./ha,92%
same,MES h.e.,Galium aparine; GALAP 24-31 DAA 45 g a.c./ha,40%
same,MES h.e.,Galium aparine; GALAP 24-31 DAA 90 g a.c./ha,90%
same,MES h.e.,Galium aparine; GALAP 24-31 DAA 135 g a.c./ha,91%
same,herbicidal effect (h.e.),Thlaspi arvense; 7-14 DAA,76%
same,herbicidal effect (h.e.),Thlaspi arvense; 18-28 DAA,97%
same,herbicidal effect (h.e.),Geranium dissectum; [7],15%
same,herbicidal effect (h.e.),Geranium dissectum; [8],15%
same,herbicidal effect (h.e.),"Poa annua [3]; 7-14 DAA, # = 2",39%
same,herbicidal effect (h.e.),"Poa annua [3]; 18-28 DAA, # = 3",36%
same,herbicidal effect (h.e.),"Poa annua [3]; 31-48 DAA, # = 2",27%
same,MES h.e.,Poa annua [3]; POAAN 14-20 DAA 45 g a.c./ha,24%
same,MES h.e.,Poa annua [3]; POAAN 14-20 DAA 90 g a.c./ha,48%
same,MES h.e.,Poa annua [3]; POAAN 14-20 DAA 135 g a.c./ha,58%
same,MES h.e.,Poa annua [3]; POAAN 24-31 DAA 45 g a.c./ha,17%
same,MES h.e.,Poa annua [3]; POAAN 24-31 DAA 90 g a.c./ha,22%
same,MES h.e.,Poa annua [3]; POAAN 24-31 DAA 135 g a.c./ha,38%
same,herbicidal effect (h.e.),Poa annua [4]; [7],0%
same,herbicidal effect (h.e.),Poa annua [4]; [8],3%
same,herbicidal effect (h.e.),Echinochloa crus-galli [5]; [7],70%
same,herbicidal effect (h.e.),Echinochloa crus-galli [5]; [8],73%
same,MES h.e.,Atriplex patula; ATXPA 24-31 DAA 90 g a.c./ha,97%
same,MES h.e.,Atriplex patula; ATXPA 24-31 DAA 135 g a.c./ha,97%
same,herbicidal effect (h.e.),Veronica persica; [7],33%
same,herbicidal effect (h.e.),Veronica persica; [8],57%
same,herbicidal effect (h.e.),"Echinochloa crus-galli [6]; 7-14 DAA, # = 9",67%
same,herbicidal effect (h.e.),"Echinochloa crus-galli [6]; 18-28 DAA, # = 14",51%
same,herbicidal effect (h.e.),"Echinochloa crus-galli [6]; 31-48 DAA, # = 13",50%
same,MES h.e.,Echinochloa crus-galli [6]; ECHCG 14-20 DAA 45 g a.c./ha,86%
same,MES h.e.,Echinochloa crus-galli [6]; ECHCG 14-20 DAA 90 g a.c./ha,95%
same,MES h.e.,Echinochloa crus-galli [6]; ECHCG 14-20 DAA 135 g a.c./ha,97%
same,MES h.e.,Echinochloa crus-galli [6]; ECHCG 24-31 DAA 45 g a.c./ha,80%
same,MES h.e.,Echinochloa crus-galli [6]; ECHCG 24-31 DAA 90 g a.c./ha,95%
same,MES h.e.,Echinochloa crus-galli [6]; ECHCG 24-31 DAA 135 g a.c./ha,97%
same,MES h.e.,Erodium ciconium; EROCC 14-20 DAA 90 g a.c./ha,32%
same,MES h.e.,Erodium ciconium; EROCC 14-20 DAA 135 g a.c./ha,33%
same,herbicidal effect (h.e.),Geranium sp.; 7-14 DAA,44%
same,herbicidal effect (h.e.),Geranium sp.; 18-28 DAA,41%
same,herbicidal effect (h.e.),Geranium sp.; 31-48 DAA,31%
same,herbicidal effect (h.e.),Stachys arvensis,54%
same,herbicidal effect (h.e.),Amaranthus retroflexus,45%
same,herbicidal effect (h.e.),Hibiscus ternatus,62%
same,herbicidal effect (h.e.),Anagallis arvensis,98%
same,MES h.e.,Mercurialis annua; MERAN 14-20 DAA 45 g a.c./ha,95%
same,MES h.e.,Mercurialis annua; MERAN 24-31 DAA 45 g a.c./ha,70%
same,herbicidal effect (h.e.),Brassica napus (winter); 7-14 DAA,98%
same,herbicidal effect (h.e.),Brassica napus (winter); 18-28 DAA,99%
